One data set concerns A549 cells. Nature of the data set: Sphinganine in cell lysates by LC-MS/MS after GlyH-101. The format is cell-based. Particulars: GlyH-101 (50 μM), A549 lung epithelial cell line; FIG. 6B. The protocol:
(§1) GlyH-101 (50 μM) was added to culture media of cystic fibrosis tracheal cells, non-cystic fibrosis tracheal cells or A549 cells (a lung epithelial cell line).
(§2) Sphinganine, an intermediate of de-novo sphingolipid synthesis, was quantified in cell lysates by LC-MS/MS.

In data set [1] the test system is non-cystic fibrosis tracheal cells. Described as above. The format is cell-based. To be noted: GlyH-101 (50 μM) in culture media, non-CF airway epithelial cells; FIG. 6A. The protocol:
as §1, §2

In data set [2] the test system is cystic fibrosis tracheal cells. Described as above. The format is cell-based, human. To be noted: GlyH-101 (50 μM) in culture medium, cells from the trachea of cystic fibrosis patients; FIG. 6A. The protocol:
as §1, §2

Data set [3] concerns the target T1, CFTR (Mus musculus, UniProt P26361).
T1 construct: administered directly to the respiratory tract; from tissue; host or cells: live Sptlc2+/+ and Sptlc2+/- mice (airways)
Nature of the data set: Myograph contractile response of bronchial rings from Sptlc2+/- or Sptlc2+/+ mice with GlyH-101 in bath. To be noted: 2 hr in bath, methacholine (10 mM), FIG. 6C. The protocol: In another experiment, bronchial rings were isolated from Sptlc2^+/− or Sptlc2^+/+ mice and mounted in a myograph. CFTR inhibitor GlyH-101 or the solvent DMSO (control) were added to the bath solution. After 2 hr contractile responses of the rings stimulated with methacholine (10 mM) were determined.

Data set [4] deals with T1, CFTR. Nature of the data set: Airway resistance to methacholine after intranasal GlyH-101 in Sptlc2+/+ and Sptlc2+/- mice. The format is in vivo. To be noted: GlyH-101 (5 μg) intranasally, after 3 h. The protocol: Mice were anaesthetized with pentobarbital (100 mg/kg; American Pharmaceutical Partners, Los Angeles, Calif.), tracheostomized and mechanically ventilated at a rate of 150 breaths/min, a tidal volume of 10 ml/kg and positive end-expiratory pressure of 2-3 cm H2O using a computer-controlled animal ventilator (Sireq, Montreal, Canada). Three perturbations were used to assess baseline respiratory mechanics and the effects were analyzed using the Flexivent software (Scireq): • (1) Static compliance was determined using the Salazar-Knowles equation (Colebatch et al., J Appl Physiol 46:387-393 (1971) to the plateau pressure measurements obtained between total lung capacity and functional residual capacity; • (2) Single-frequency forced oscillations were applied to determine tissue resistance (R), elastance (E) and dynamic compliance (C) using a single compartment model; • (3) Broadband forced oscillations were applied to determine Newtonian (airway) resistance (Rn), tissue damping (G) and tissue elastance using a constant phase model. Rn and G were also assessed following increasing doses of methacholine (3.125, 12.5 and 50 mg/ml). […]

Data set [5] has as its system Human bronchial epithelial cells. Put plainly: Sphingolipids by mass spectrometry in human bronchial epithelial cells. The format is cell-based. To be noted: fenretinide (10 μM) for 3 hours; FIG. 7. The protocol:
FIG. 7 illustrates that fenretinide increases metabolites of de-novo sphingolipid synthesis. Human bronchial epithelial cells were incubated with myriocin (1 μM) or fenretinide (10 μM) for 3 h in serum free medium supplemented with fatty acid-free bovine serum albumin (0.1%). Cell lysates were analyzed by mass spectrometry. The sums (mean+SEM) of all dihydroceramides are shown as a reflection of the activity of the de-novo sphingolipid synthesis pathway.
(§3) Human bronchial epithelial cells were incubated with either myriocin (1 μM) or fenretinide (10 μM) for 3 hours. The amounts of sphingolipids were then quantified by mass spectrometry.

For data set [6] the test system is unchanged. Nature of the data set: Viability of human bronchial epithelial cells. The format is cell-based. Particulars: myriocin (1 μM) or fenretinide (10 μM) for 3 hours. The protocol: as §3
The viability of the cells was not affected by fenretinide or myriocin. Fenretinide can induce cell death at doses as low as 5 μM in cancer cells (Wang et al. Cancer Res 61:5102-5 (2001)), but toxicity is usually not seen in doses up to 12 μM in non-malignant cells (Li et al., Cancer Letters 284:175-81 (2009); O'Donnell et al., Leukemia 16:902-10 (2002)). Accordingly, low doses of fenretinide may effectively alleviate bronchial hyper reactivity.

Another data set has as its system cancer cells. To be noted: cancer cells (Wang et al. 2001); cited from earlier work.
For the next data set, the system named is non-malignant cells. Particulars: non-malignant cells (Li et al. 2009; O'Donnell et al. 2002); cited from earlier work.

Where only a bound is given, the exact number is not on record here.

T1 sequence (P26361 whole entry): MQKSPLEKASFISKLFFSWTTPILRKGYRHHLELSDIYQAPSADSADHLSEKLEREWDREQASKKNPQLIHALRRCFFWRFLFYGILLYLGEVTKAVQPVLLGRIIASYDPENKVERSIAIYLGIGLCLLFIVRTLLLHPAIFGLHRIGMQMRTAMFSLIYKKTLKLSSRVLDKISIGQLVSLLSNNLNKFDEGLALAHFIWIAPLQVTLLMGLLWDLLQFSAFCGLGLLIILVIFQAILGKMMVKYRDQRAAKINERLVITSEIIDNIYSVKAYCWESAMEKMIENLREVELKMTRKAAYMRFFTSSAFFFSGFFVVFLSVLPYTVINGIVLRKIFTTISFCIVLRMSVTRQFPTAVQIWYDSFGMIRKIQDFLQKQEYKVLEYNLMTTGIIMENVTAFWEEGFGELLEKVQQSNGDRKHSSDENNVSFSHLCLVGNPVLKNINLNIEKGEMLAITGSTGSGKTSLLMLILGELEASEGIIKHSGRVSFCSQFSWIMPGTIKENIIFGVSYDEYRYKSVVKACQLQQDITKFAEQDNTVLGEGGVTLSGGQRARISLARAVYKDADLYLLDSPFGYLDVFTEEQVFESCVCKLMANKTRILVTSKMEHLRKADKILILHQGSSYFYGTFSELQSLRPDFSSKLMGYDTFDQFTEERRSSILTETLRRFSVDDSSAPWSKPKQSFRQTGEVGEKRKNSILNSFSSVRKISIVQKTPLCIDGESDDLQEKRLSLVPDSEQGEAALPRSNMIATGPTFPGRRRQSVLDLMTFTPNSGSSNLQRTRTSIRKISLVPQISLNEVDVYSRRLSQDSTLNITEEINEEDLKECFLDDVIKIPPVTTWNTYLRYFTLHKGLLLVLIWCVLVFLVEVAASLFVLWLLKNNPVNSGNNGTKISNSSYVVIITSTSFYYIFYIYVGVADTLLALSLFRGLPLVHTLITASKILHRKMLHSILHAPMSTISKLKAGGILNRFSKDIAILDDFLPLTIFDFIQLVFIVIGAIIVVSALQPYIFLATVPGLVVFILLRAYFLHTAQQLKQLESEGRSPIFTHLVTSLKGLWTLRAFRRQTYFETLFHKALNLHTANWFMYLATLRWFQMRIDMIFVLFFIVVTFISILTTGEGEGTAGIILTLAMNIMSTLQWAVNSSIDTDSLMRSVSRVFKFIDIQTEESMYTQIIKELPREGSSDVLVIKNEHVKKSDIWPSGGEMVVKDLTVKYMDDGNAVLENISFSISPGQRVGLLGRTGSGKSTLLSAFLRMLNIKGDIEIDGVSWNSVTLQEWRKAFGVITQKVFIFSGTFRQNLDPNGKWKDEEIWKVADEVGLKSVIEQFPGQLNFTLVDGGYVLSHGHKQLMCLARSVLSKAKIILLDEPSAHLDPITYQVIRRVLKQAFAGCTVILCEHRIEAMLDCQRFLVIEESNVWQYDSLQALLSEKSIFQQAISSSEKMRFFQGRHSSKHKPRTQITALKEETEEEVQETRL

As for `O=C(CNc1ccc2ccccc2c1)N/N=C/c1cc(Br)c(O)c(Br)c1O` [GlyH-101, (Naphthalen-2-ylamino)-acetic acid (3,5-dibromo-2,4,-dihydroxybenzylidene)-hydrazide], the sphinganine level result in the data set on A549 cells is recorded as “increases”; in data set [1], “increases”; in [2], “not altered”. Further, the “contractile response of bronchial rings upon methacholine” value on CFTR [3] (rings from Spt-deficient mice) is on record as “decreased”. The “contractile response of bronchial rings” value at CFTR [3] (rings from wild type mice (Sptlc+/+)) was “increased contractile response”. Also, the “airway resistance after methacholine” value at CFTR [4] (Sptlc2+/- mice, FIG. 6E) is “alleviated”. Further, at CFTR [4] (control Sptlc2+/+ mice, FIG. 6D), the “bronchial reactivity after methacholine” value is “no effect”.
On to `CC1=C(/C=C/C(C)=C/C=C/C(C)=C/C(=O)Nc2ccc(O)cc2)C(C)(C)CCC1` [fenretinide, N-(4-hydroxyphenyl)retinamide], for which the “sum of all dihydroceramides” value in [5] was “increased”. Also, the “viability of the cells” value in data set [6] is “not affected”. In the data set on cancer cells, the “doses that can induce cell death” value is not below 5 µM. Moreover, in the data set with non-malignant cells, the “doses at which toxicity is usually not seen” value was “up to 12 μM”.

Values taken from US10159678B2, “Methods to decrease susceptibility to asthmatic bronchoconstriction” (Cornell University, priority 2012, dated 2018).
